Assay results as given in ChEMBL document CHEMBL1157539, “Thousands of chemical starting points for antimalarial lead identification” (Nature, 2010).

Test system: Plasmodium falciparum
Assay: GSK_TCMDC: Inhibition of Plasmodium falciparum 3D7 in whole erythrocytes, using parasite LDH activity as an index of growth.
Type: functional, organism-based
Details: Plasmodium falciparum, 3D7

| SMILES | XC50 [nM] |
| --- | --- |
| O=C(/C=N/O)Nc1ccccc1[N+](=O)[O-] | 785 |
| COc1cccc(CNC(=O)c2ccnc(-c3ccc(CNCCOc4ccccc4)cc3)c2)c1 | 1200 |
| Nc1nnc(-c2ccc(Cl)c(Br)c2)c(N)n1 | 1040 |
| CC(C)N1CCC(NC(=O)N2CCCN(c3ncnc4cc(-c5ccccc5)sc34)CC2)CC1 | 861 |
| O=S(=O)(Nc1cc2c(cc1OCc1ccccc1)CCN(C1CCC1)CC2)c1ccc(-c2ccc(Cl)cc2)cc1 | 1140 |
| CCCCC(N)COc1cccc2c(-c3ccncc3)c(-c3cccc(NC(=O)Nc4ccccc4)c3)nn12 (stereo unspecified) | 878 |
| COc1cccc(CN2CCCC(OC(c3ccccc3)c3ccccc3)C2)c1O (stereo unspecified) | 930 |
| O=C(/C=C/c1cc(F)c(F)cc1F)N1CCC(CN2CCC(c3c[nH]c4ccccc34)CC2)CC1 | 995 |
| COc1ccc(CN(C)CCCOc2ccc(NC(=O)c3cccc4c(=O)c5cccc(C)c5[nH]c34)cc2)cc1OC | 889 |
| CC(C)(C)c1ccc(NC(=O)c2cccc(CN3CCCN(Cc4ccc(F)cc4)CC3)c2)cc1 | 989 |
| Cc1cc(N2CCNCC2)c2cc(NC(=O)Nc3ccc(Cl)c(Cl)c3)ccc2n1 | 313 |
| Cc1nc(C)c(-c2ccc(Oc3cccc(OC(F)(F)F)c3)cc2)c(O)c1Br | 17.1 |
| FC(F)(F)c1ccc2c(NN=Cc3cccc(Cl)c3)ccnc2c1 | 838 |
| N=C(N)NN=Cc1cc([N+](=O)[O-])ccc1Sc1ccccc1CO | 1460 |
| COc1ccc(-c2ccc(NC(=O)c3ccc(C#N)cc3)cc2)cc1CN1CCN(C)CC1 | 721 |
| CC(C)(C)OC(=O)/C=C(\C(=O)OCc1ccc([N+](=O)[O-])cc1)c1csc(NC(c2ccccc2)(c2ccccc2)c2ccccc2)n1 | 861 |
| COc1ccc(CCNCc2ccc3c(C)cc(N)nc3c2)cc1 | 568 |
| COc1ccc(C(=O)Nc2ccc(-c3nc4cc(C)ccc4[nH]3)cc2)cc1OC | 761 |
| CCCOc1ccc2ccccc2c1CNCCCCCCNCc1c(OCCC)ccc2ccccc12 | 791 |
| O=C(Nc1ccncc1)Nc1ccc2c(c1)CCN(C1CCC1)CC2 | 1130 |
| Cc1ccc2ccccc2c1CCCON1C(=N)N=C(N)NC1(C)C | 3.2 |

| SMILES | XC50 [nM] |
| --- | --- |
| COc1cc(Cc2cnc(N)nc2N)cc(OCCCOc2ccccc2)c1OC | 1080 |
| OC(c1cccc2ccccc12)C1CN(CCc2ccccc2)CCC1(O)c1ccccc1 (stereo unspecified) | 145 |
| CC(C)C[C@H](NC(=O)OC(C)(C)C)C(=O)Nc1ccc(Cc2ccc(NC(=O)[C@H](CC(C)C)NC(=O)OC(C)(C)C)cc2)cc1 | 761 |
| COc1ccc(N(c2nc(-c3cc(Cl)ccc3Cl)cs2)C2CCNCC2)cc1 | 1090 |
| Cc1cc(-c2cc3nc4c(c(O)n3n2)CCCC4)c(C)o1 | 821 |
| CC(C)(C)c1ccc(NC(=O)c2cccc(CN3CCCN(Cc4ccsc4)CC3)c2)cc1 | 760 |
| O=C(Nc1ccc(-c2ccc(-c3nc4ccccc4[nH]3)cc2)cc1)Nc1ccc(Cl)c(Cl)c1 | 98.8 |
| Cc1c(Cc2ccc(C(C)C)cc2)cnc2nc(N)nc(N)c12 | 298 |
| Cc1ccc(-n2c(C)nc3c(Nc4ccc(-c5ccncc5)cc4)ncnc32)c(C)c1 | 101 |
| CN1CCC(NCc2cccc(-c3cnc(NCc4ccccc4)nc3)c2)CC1 | 965 |
| CCn1c(SCc2ccccc2)nc2c1c(=O)[nH]c(=O)n2C | 241 |
| CCOCCCNc1nc2cc(OC)c(OC)cc2c2nc(-c3ccccc3)nn12 | 209 |
| COc1cc2nccc(Nc3ccc4c(cnn4Cc4ccccc4F)c3)c2cc1OC | 400 |
| Fc1ccc(C=NN=c2cc[nH]c3ccccc23)cc1 | 706 |
| CN1CCC[C@H]1COc1ccc(CN2CC[C@H](NC(=O)c3ccc(Cl)c(Cl)c3)C2)cc1Br | 983 |
| CCOc1ccc(-c2nonc2NC(=O)c2cccs2)cc1OCC | 756 |
| Cc1cccc2nc(-c3ccc(-c4cccc(CN5CCC(CO)CC5)c4)s3)[nH]c12 | 935 |
| COc1ccc(-n2cc(CNCCCn3ccnc3)c(-c3cccc(F)c3)n2)cc1 | 1060 |
| COc1cc2c(C3CCN(CC4CCC(NC(=O)/C=C/c5ccc(Cl)c(Cl)c5)CC4)CC3)c[nH]c2cn1 (stereo unspecified) | 423 |
| Cc1ccc(O)cc1Nc1ccnc2cc(-c3csc(CNCCN4CCOCC4)n3)ccc12 | 884 |
